Test results from ChEMBL document CHEMBL3813609, “Efficient protein knockdown of HaloTag-fused proteins using hybrid molecules consisting of IAP antagonist and HaloTag ligand” (Bioorg Med Chem, 2016).
Each block holds one molecule with its values, some of them ahead of it. The source made the active and inactive calls. No cut-off for these calls is given here. Where a SMILES comes first, the peptide text is derived from it. [ ]: non-standard residue; d: D form. The star is where a group is joined. Dip = N[C@H](C(=O)O)C(c1ccccc1)c1ccccc1; X2 = ClCCCCCCOCCOCCOCCOCCOCCN*; Chg = N[C@H](C(=O)O)C1CCCCC1; NMeA = CN[C@@H](C)C(=O)O; X1 = ClCCCCCCOCCOCCOCCN*

Key:
Assay type in all cases: cell-based
[1] = biological target: Tumor necrosis factor (Homo sapiens) (UniProt P01375); experiment: Induction of degradation of halo-tagged human TNFalpha expressed in HEK293 cells at 1 uM after 6 hrs by Western blot analysis
Sequence of Tumor necrosis factor (Homo sapiens) (P01375 whole entry): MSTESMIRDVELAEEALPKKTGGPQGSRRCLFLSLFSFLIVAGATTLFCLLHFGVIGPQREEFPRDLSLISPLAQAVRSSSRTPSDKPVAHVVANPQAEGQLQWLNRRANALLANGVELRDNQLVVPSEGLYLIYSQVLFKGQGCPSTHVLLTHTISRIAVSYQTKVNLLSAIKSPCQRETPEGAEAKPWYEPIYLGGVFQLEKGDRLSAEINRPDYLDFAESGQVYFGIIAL

[2] = biological target: Cyclic AMP-responsive element-binding protein 1 (Homo sapiens) (UniProt P16220); experiment: Induction of degradation of halo-tagged CREB1 (unknown origin) expressed in HEK293 cells at 10 uM by Western blot analysis
Sequence of Cyclic AMP-responsive element-binding protein 1 (Homo sapiens) (P16220 whole entry): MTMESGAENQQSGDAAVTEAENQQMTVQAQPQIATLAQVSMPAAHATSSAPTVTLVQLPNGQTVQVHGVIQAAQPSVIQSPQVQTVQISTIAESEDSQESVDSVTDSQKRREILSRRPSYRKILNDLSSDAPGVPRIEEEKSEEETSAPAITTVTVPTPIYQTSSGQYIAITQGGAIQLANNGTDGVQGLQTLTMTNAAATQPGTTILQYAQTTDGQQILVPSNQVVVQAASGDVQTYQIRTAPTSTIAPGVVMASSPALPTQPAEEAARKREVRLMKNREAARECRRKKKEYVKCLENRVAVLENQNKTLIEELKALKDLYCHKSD

[3] = biological target: Transcription factor Jun (Homo sapiens) (UniProt P05412); experiment: Induction of degradation of halo-tagged c-jun (unknown origin) expressed in HEK293 cells assessed as time required to reduce level of halo-tagged c-jun at 10 uM by Western blot analysis
Sequence of Transcription factor Jun (Homo sapiens) (P05412 whole entry): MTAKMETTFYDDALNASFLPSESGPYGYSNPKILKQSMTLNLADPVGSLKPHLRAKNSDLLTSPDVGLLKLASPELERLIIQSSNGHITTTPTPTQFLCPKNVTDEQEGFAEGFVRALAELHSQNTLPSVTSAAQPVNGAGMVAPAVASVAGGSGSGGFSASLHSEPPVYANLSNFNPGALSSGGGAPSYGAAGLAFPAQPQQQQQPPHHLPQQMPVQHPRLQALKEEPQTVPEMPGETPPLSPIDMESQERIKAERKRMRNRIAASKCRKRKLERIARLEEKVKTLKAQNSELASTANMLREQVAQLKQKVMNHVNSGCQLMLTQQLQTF

HEK293 [4] = experiment: Increase in level of bacterial haloalkane dehalogenase expressed in HEK293 cells at 0.1 to 0.3 uM after 6 hrs by Western blot analysis; settings: Bacteria
[5] = biological target: Cell division control protein 42 homolog (Homo sapiens) (UniProt P60953); experiment: Induction of degradation of halo-tagged human Cdc42 expressed in HEK293 cells at 1 uM after 6 hrs by Western blot analysis
Sequence of Cell division control protein 42 homolog (Homo sapiens) (P60953 whole entry, looked up): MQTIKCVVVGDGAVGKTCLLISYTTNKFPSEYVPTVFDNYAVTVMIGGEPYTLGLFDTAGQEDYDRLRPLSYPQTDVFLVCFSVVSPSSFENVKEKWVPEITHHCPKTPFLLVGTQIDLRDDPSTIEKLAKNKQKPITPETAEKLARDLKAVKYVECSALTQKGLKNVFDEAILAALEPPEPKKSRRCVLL

HEK293 [6] = experiment: Induction of degradation of bacterial haloalkane dehalogenase expressed in HEK293 cells at 1 uM after 6 hrs by Western blot analysis; settings: Bacteria
[7] = biological target: Tumor necrosis factor (Homo sapiens) (UniProt P01375); experiment: Increase in level of halo-tagged human TNFalpha expressed in HEK293 cells at 0.1 to 0.3 uM after 6 hrs by Western blot analysis
[8] = biological target: Tumor necrosis factor (Homo sapiens) (UniProt P01375); experiment: Induction of degradation of halo-tagged human TNFalpha expressed in HEK293 cells at 30 uM after 6 hrs by Western blot analysis
[9] = biological target: Tumor necrosis factor (Homo sapiens) (UniProt P01375); experiment: Induction of degradation of halo-tagged TNFalpha (unknown origin) expressed in HEK293 cells at 10 uM after 24 hrs by Western blot analysis
[10] = biological target: Tumor necrosis factor (Homo sapiens) (UniProt P01375); experiment: Induction of degradation of halo-tagged human TNFalpha expressed in HEK293 cells after 6 hrs by Western blot analysis
[11] = biological target: Tumor necrosis factor (Homo sapiens) (UniProt P01375); experiment: Induction of degradation of halo-tagged human TNFalpha expressed in HEK293 cells at 1 uM after 6 hrs by Western blot analysis in presence of proteasome inhibitor MG132

Structure (SMILES): CN[C@@H](C)C(=O)NC(C(=O)N1CCC[C@H]1C(=O)N[C@H](C(=O)OC)C(c1ccccc1)c1ccccc1)C1CCCCC1 (single isomer, unassigned)
Activity [1]: inactive

Structure (SMILES): NCCOCCOCCOCCCCCCCl
Activity [1]: inactive

Structure (SMILES): CC(C)C[C@H](NC(=O)[C@@H](O)[C@H](N)Cc1ccccc1)C(=O)NCCOCCOCCOCCOCCOCCCCCCCl
Activity [2]: Active
TIME [3]: 21 h

Structure (SMILES): CN[C@@H](C)C(=O)N[C@H](C(=O)N1CCC[C@H]1C(=O)N[C@H](C(=O)NCCOCCOCCOCCCCCCCl)C(c1ccccc1)c1ccccc1)C1CCCCC1 (H-[NMeA][Chg]P[Dip]-X1)
Activity (HEK293 [4]): Active
Activity [10]: Dose-dependent effect
Activity [11]: inactive
Activity [5]: inactive
Activity (HEK293 [6]): Active
Activity [7]: Active

Structure (SMILES): CC(C)C[C@H](NC(=O)[C@@H](O)[C@H](N)Cc1ccccc1)C(=O)NCCOCCOCCOCCOCCOCCOCCCCCCCl
Activity [2]: Active
TIME [3]: 21 h

More lines, main results first:

Activity [2]: Active
TIME [3]: 21 h
Structure (SMILES): CC(C)C[C@H](NC(=O)[C@@H](O)[C@H](N)Cc1ccccc1)C(=O)NCCOCCOCCOCCCCCCCl

Activity [5]: Active
Structure (SMILES): CN[C@@H](C)C(=O)N[C@H](C(=O)N1CCC[C@H]1C(=O)N[C@H](C(=O)NCCOCCOCCOCCOCCOCCCCCCCl)C(c1ccccc1)c1ccccc1)C1CCCCC1 (H-[NMeA][Chg]P[Dip]-X2)
Activity (HEK293 [4]): Active
Activity [1]: inactive
Activity (HEK293 [6]): Active
Activity [7]: Active

Activity [2]: Active
TIME [3]: 21 h
Structure (SMILES): CC(C)C[C@H](NC(=O)[C@@H](O)[C@H](N)Cc1ccccc1)C(=O)NCCOCCOCCOCCOCCCCCCCl
Activity [8]: inactive
Activity [9]: Active
